Laboratory results reported in ChEMBL document CHEMBL3808370, “Nortriketones: Antimicrobial Trimethylated Acylphloroglucinols from Ma̅nuka (Leptospermum scoparium)” (J Nat Prod, 2016).
Values after ≈ are worked out from the molar mass of the structure shown. Active and inactive are the calls of the source. The calls are words filed in the database; no cut-off is given here.

Tests used:
[1] = biological target: T1, 4-hydroxyphenylpyruvate dioxygenase (Arabidopsis thaliana) (UniProt P93836); assay: Inhibition of recombinant Arabidopsis thaliana HPPD overexpressed in Escherichia coli JM105 cells at 100 uM using 4-HPP as substrate preincubated for 15 mins followed by substrate addition and subsequent incubation for 15 mins by HPLC analysis
T1 sequence (whole entry): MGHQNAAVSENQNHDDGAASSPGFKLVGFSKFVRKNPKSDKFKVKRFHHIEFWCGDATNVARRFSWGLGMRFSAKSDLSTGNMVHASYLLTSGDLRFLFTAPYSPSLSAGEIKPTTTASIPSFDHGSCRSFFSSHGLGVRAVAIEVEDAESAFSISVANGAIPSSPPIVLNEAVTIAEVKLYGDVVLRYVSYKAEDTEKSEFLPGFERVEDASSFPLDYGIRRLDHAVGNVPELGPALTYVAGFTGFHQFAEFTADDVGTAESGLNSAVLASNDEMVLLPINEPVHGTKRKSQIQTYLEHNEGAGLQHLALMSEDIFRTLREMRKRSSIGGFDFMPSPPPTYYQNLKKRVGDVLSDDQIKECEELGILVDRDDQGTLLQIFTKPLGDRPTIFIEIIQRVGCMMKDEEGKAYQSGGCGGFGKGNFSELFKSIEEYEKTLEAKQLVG

Enterococcus faecalis = assay: Antibacterial activity against vancomycin-resistant Enterococcus faecalis incubated for 18 to 24 hrs by broth microdilution method; format: functional
Staphylococcus aureus = assay: Antibacterial activity against methicillin-resistant Staphylococcus aureus by two-fold broth dilution method; format: functional
Escherichia coli = assay: Antibacterial activity against Escherichia coli; format: functional
[2] = biological target: T2, 4-hydroxyphenylpyruvate dioxygenase (Arabidopsis thaliana, UniProt P93836); assay: Inhibition of recombinant Arabidopsis thaliana HPPD overexpressed in Escherichia coli JM105 cells using 4-HPP as substrate preincubated for 15 mins followed by substrate addition and subsequent incubation for 15 mins by HPLC analysis; conditions: read-out: I50
T2 sequence (P93836 whole entry): T1 sequence (whole entry)

SMILES: CC1=C(O)C(C)(C)C(=O)C(C(=O)C(C)C)=C1O
- inhibition [1]: inactive

SMILES: CC1(C)C(=O)C(C(=O)CCc2ccccc2)=C(O)C(C)(C)C1=O
- MIC (Enterococcus faecalis): 6 µg/mL (≈ 19.1 µM)
- MIC (Staphylococcus aureus): 6 µg/mL (≈ 19.1 µM)
- MIC (Escherichia coli): > 512 µg/mL
- IC50 [2]: 750 nM

SMILES: CC1=C(O)C(C)(C)C(=O)C(C(=O)CCc2ccccc2)=C1O
- MIC (Enterococcus faecalis): 64 µg/mL (≈ 213 µM)
- MIC (Staphylococcus aureus): 64 µg/mL (≈ 213 µM)
- MIC (Escherichia coli): > 512 µg/mL
- inhibition [1]: inactive

SMILES: CC1=C(O)C(C)(C)C(=O)C(C(=O)CC(C)C)=C1O
- inhibition [1]: inactive
